This assay concerns YAP/TAZ-TEAD transcription. As to the kind of experiment: Reporter gene assay for measuring the inhibition of YAP/TAZ-TEAD transcription (TEAD-responsive element luciferase reporter in Hek293T cells). Format: cell-based. The conditions noted are these: Homo sapiens, HEK-293T, 24 hours incubation. In short, it runs like this: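 Hek293T cells transiently transfected with a TEAD-responsive element luciferase reporter were plated onto compounds and incubated 24 h at 37 °C/5% CO2. SteadyLite luminescence gave percent inhibition, normalised to vehicle (0%) and positive control inhibitor (100%); EC50 derived.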

Bounds are passed on as bounds.

In general, EC50 refers to the midpoint of the concentration-response curve. Read a low EC50 as a more potent agent. In turn, `CNS(=O)(=O)CCNc1ccc(-c2cc(F)cc(F)c2)cc1-c1ccn(Cc2cccnc2)n1` [compound 101, 2-((3′,5′-difluoro-3-(1-(pyridin-3-ylmethyl)-1H-pyrazol-3-yl)-[1,1′-biphenyl]-4-yl)amino)-N-methylethane-1-sulfonamide] gave an EC50 of less than 1000 nM. Regarding `CNS(=O)(=O)CCNc1ccc(-c2ccc(C(F)(F)F)cc2)cc1-c1ccn(Cc2cccc(F)c2)n1` [compound 103, 2-((3-(1-(3-fluorobenzyl)-1H-pyrazol-3-yl)-4′-(trifluoromethyl)-[1,1′-biphenyl]-4-yl)amino)-N-methylethane-1-sulfonamide], the EC50 was less than 1000 nM.

`CNS(=O)(=O)CCNc1ccc(-c2ccccc2)cc1-c1ccn(Cc2cccc(C#N)c2)n1` [compound 104, 2-((3-(1-(3-cyanobenzyl)-1H-pyrazol-3-yl)-[1,1′-biphenyl]-4-yl)amino)-N-methylethane-1-sulfonamide] yielded an EC50 of less than 1000 nM. The value for `CNS(=O)(=O)CCNc1ccc(-c2ccc(C(F)(F)F)cc2)cc1-c1ccn(CCOC)n1` [compound 105, 2-((3-(1-(2-methoxyethyl)-1H-pyrazol-3-yl)-4′-(trifluoromethyl)-[1,1′-biphenyl]-4-yl)amino)-N-methylethane-1-sulfonamide] was less than 1000 nM; that for `CNS(=O)(=O)CCNc1ccc(-c2ccc(Cl)cc2)cc1-c1ccn(Cc2cccnc2)n1` [compound 106, 2-((4′-chloro-3-(1-(pyridin-3-ylmethyl)-1H-pyrazol-3-yl)-[1,1′-biphenyl]-4-yl)amino)-N-methylethane-1-sulfonamide] was less than 1000 nM.

As for `O=S(=O)(O)CCNc1ccc(-c2ccc(Cl)cc2)cc1-c1ccn(Cc2cccnc2)n1` [compound 107, 2-((4′-chloro-3-(1-(pyridin-3-ylmethyl)-1H-pyrazol-3-yl)-[1,1′-biphenyl]-4-yl)amino)ethane-1-sulfonic acid], the EC50 is more than 20000 nM. With `CNS(=O)(=O)CCNc1ccc(-c2cnn(C)c2)cc1-c1ccn(Cc2cccnc2)n1` [compound 108, N-methyl-2-((4-(1-methyl-1H-pyrazol-4-yl)-2-(1-(pyridin-3-ylmethyl)-1H-pyrazol-3-yl)phenyl)amino)ethane-1-sulfonamide] the figure was 1000 to 20000 nM. The value for `Cn1ccc(-c2ccc(NCCS(=O)(=O)O)c(-c3ccn(Cc4cccnc4)n3)c2)n1` [compound 109, 2-((4-(1-methyl-1H-pyrazol-3-yl)-2-(1-(pyridin-3-ylmethyl)-1H-pyrazol-3-yl)phenyl)amino)ethane-1-sulfonic acid] was more than 20000 nM. The molecule `COc1ccc(-c2ccc(NCCS(=O)(=O)F)c(-c3ccn(Cc4cccnc4)n3)c2)cc1` [compound 110, 2-((4′-methoxy-3-(1-(pyridin-3-ylmethyl)-1H-pyrazol-3-yl)-[1,1′-biphenyl]-4-yl)amino)ethane-1-sulfonyl fluoride] displayed a concentration for a half-maximal effect (EC50) of 1000 to 20000 nM.

`CNS(=O)(=O)CCNc1ccc(-c2ccc(OC)cc2)cc1-c1ccn(Cc2cccnc2)n1` [compound 111, 2-((4′-methoxy-3-(1-(pyridin-3-ylmethyl)-1H-pyrazol-3-yl)-[1,1′-biphenyl]-4-yl)amino)-N-methylethane-1-sulfonamide] had an EC50 of less than 1000 nM. With `CNS(=O)(=O)CCNc1ccc(-c2ccc(C(F)(F)F)cc2)cc1-c1ccn(CCO)n1` [compound 112, 2-((3-(1-(2-hydroxyethyl)-1H-pyrazol-3-yl)-4′-(trifluoromethyl)-[1,1′-biphenyl]-4-yl)amino)-N-methylethane-1-sulfonamide] the figure was less than 1000 nM.

As to `CNS(=O)(=O)CCNc1ccc(-c2ccccc2)cc1-c1ccn(Cc2cccc(C(N)=O)c2)n1` [compound 113, 3-((3-(4-((2-(N-methylsulfamoyl)ethyl)amino)-[1,1′-biphenyl]-3-yl)-1H-pyrazol-1-yl)methyl)benzamide], the EC50 was less than 1000 nM. Molecule `CNS(=O)(=O)CCNc1ccc(-c2ccccn2)cc1-c1ccn(Cc2cccnc2)n1` [compound 114, N-methyl-2-((4-(pyridin-2-yl)-2-(1-(pyridin-3-ylmethyl)-1H-pyrazol-3-yl)phenyl)amino)ethane-1-sulfonamide] returned an EC50 of 1000 to 20000 nM. In turn, `CNS(=O)(=O)CCNc1ccc(Cc2ccccc2)cc1-c1ccn(Cc2cccnc2)n1` [compound 115, 2-((4-benzyl-2-(1-(pyridin-3-ylmethyl)-1H-pyrazol-3-yl)phenyl)amino)-N-methylethane-1-sulfonamide] had an EC50 of less than 1000 nM. With `CNS(=O)(=O)CCNc1ccc(Nc2ccccc2)cc1-c1ccn(Cc2cccnc2)n1` [compound 116, N-methyl-2-((4-(phenylamino)-2-(1-(pyridin-3-ylmethyl)-1H-pyrazol-3-yl)phenyl)amino)ethane-1-sulfonamide] the figure was less than 1000 nM.

As to `CNS(=O)(=O)CCNc1ccc(-c2cccc(C(F)(F)F)c2)cc1-c1ccn(C)n1` [compound 120], the EC50 is less than 1000 nM. `CNS(=O)(=O)CCNc1ccc(-c2cccc(Cl)c2)cc1-c1ccn(C)n1` [compound 122, 2-((3′-chloro-3-(1-methyl-1H-pyrazol-3-yl)-[1,1′-biphenyl]-4-yl)amino)-N-methylethane-1-sulfonamide] came in with an EC50 of less than 1000 nM. With `CNS(=O)(=O)CCNc1ccc(-c2cc(F)ccc2F)cc1-c1ccn(C)n1` [compound 123, 2-((2′,5′-difluoro-3-(1-methyl-1H-pyrazol-3-yl)-[1,1′-biphenyl]-4-yl)amino)-N-methylethane-1-sulfonamide] the figure was less than 1000 nM; with `CNS(=O)(=O)CCNc1ccc(-c2cccc(F)c2F)cc1-c1ccn(C)n1` [compound 125, 2-((2′,3′-difluoro-3-(1-methyl-1H-pyrazol-3-yl)-[1,1′-biphenyl]-4-yl)amino)-N-methylethane-1-sulfonamide], less than 1000 nM; with `CNS(=O)(=O)CCNc1ccc(-c2cc(F)cc(F)c2)cc1-c1ccn(C)n1` [compound 126, 2-((3′,5′-difluoro-3-(1-methyl-1H-pyrazol-3-yl)-[1,1′-biphenyl]-4-yl)amino)-N-methylethane-1-sulfonamide], less than 1000 nM. `CNS(=O)(=O)CCNc1ccc(-c2ccc(C(F)(F)F)c(F)c2)cc1-c1ccn(C)n1` [compound 127, 2-((3′-fluoro-3-(1-methyl-1H-pyrazol-3-yl)-4′-(trifluoromethyl)-[1,1′-biphenyl]-4-yl)amino)-N-methylethane-1-sulfonamide]: the EC50 was less than 1000 nM. As to `CNS(=O)(=O)CCNc1ccc(-c2cc(F)cc(C(F)(F)F)c2)cc1-c1ccn(C)n1` [compound 128, 2-((3′-fluoro-3-(1-methyl-1H-pyrazol-3-yl)-5′-(trifluoromethyl)-[1,1′-biphenyl]-4-yl)amino)-N-methylethane-1-sulfonamide], the EC50 is less than 1000 nM. Molecule `CNS(=O)(=O)CCNc1ccc(-c2cccc(OC(F)(F)F)c2)cc1-c1ccn(C)n1` [compound 129, N-methyl-2-((3-(1-methyl-1H-pyrazol-3-yl)-3′-(trifluoromethoxy)-[1,1′-biphenyl]-4-yl)amino)ethane-1-sulfonamide] gave an EC50 of 1000 to 20000 nM. With `CNS(=O)(=O)CCNc1cnc(-c2ccc(C(F)(F)F)cc2)cc1-c1ccn(C(F)F)n1` [compound 130, 2-((4-(1-(difluoromethyl)-1H-pyrazol-3-yl)-6-(4-(trifluoromethyl)phenyl)pyridin-3-yl)amino)-N-methylethane-1-sulfonamide] the figure was less than 1000 nM. As to `CN(C)S(=O)(=O)CCNc1ccc(-c2ccc(F)cc2)nc1-c1ccn(C(F)F)n1` [compound 133, 2-((2-(1-(difluoromethyl)-1H-pyrazol-3-yl)-6-(4-fluorophenyl)pyridin-3-yl)amino)-N,N-dimethylethane-1-sulfonamide], the EC50 is less than 1000 nM.

`CNS(=O)(=O)CCNc1ccc(-c2ccc(C(F)(F)F)cc2)nc1-c1ccn(C(F)F)n1` [compound 134, 2-((2-(1-(difluoromethyl)-1H-pyrazol-3-yl)-6-(4-(trifluoromethyl)phenyl)pyridin-3-yl)amino)-N-methylethane-1-sulfonamide] came in with an EC50 of less than 1000 nM.

In the case of `C=CC(=O)NCc1ccc(-c2ccccc2)cc1-c1ccn(Cc2cccnc2)n1` [compound 136, N-((3-(1-(pyridin-3-ylmethyl)-1H-pyrazol-3-yl)-[1,1′-biphenyl]-4-yl)methyl)acrylamide], the EC50 is less than 1000 nM. The value for `CCC(=O)NCc1cc(-c2ccccc2)cc(-c2ccn(C)n2)c1` [compound 138, N-((5-(1-methyl-1H-pyrazol-3-yl)-[1,1′-biphenyl]-3-yl)methyl)propionamide] was 1000 to 20000 nM.

Molecule `C=CC(=O)NCc1cc(-c2ccccc2)cc(-c2ccn(Cc3cccnc3)n2)c1` [compound 139, N-((5-(1-(pyridin-3-ylmethyl)-1H-pyrazol-3-yl)-[1,1′-biphenyl]-3-yl)methyl)acrylamide] yielded an EC50 of less than 1000 nM. The value for `C=CC(=O)NCc1ccc(-c2ccc(C(F)(F)F)cc2F)cc1-c1ccn(C)n1` [compound 146, N-((2′-fluoro-3-(1-methyl-1H-pyrazol-3-yl)-4′-(trifluoromethyl)-[1,1′-biphenyl]-4-yl)methyl)acrylamide] was less than 1000 nM.

Molecule `C=CC(=O)NCc1ccc(-c2ccc(C(F)(F)F)cn2)cc1-c1ccn(C)n1` [compound 147, N-(2-(1-methyl-1H-pyrazol-3-yl)-4-(5-(trifluoromethyl)pyridin-2-yl)benzyl)acrylamide] came in with an EC50 of less than 1000 nM. Molecule `C=CC(=O)NCc1ccc(-c2ccc(C(F)(F)F)nc2)cc1-c1ccn(C)n1` [compound 148, N-(2-(1-methyl-1H-pyrazol-3-yl)-4-(6-(trifluoromethyl)pyridin-3-yl)benzyl)acrylamide] showed an EC50 of less than 1000 nM. With `C=CC(=O)NCc1ccc(-c2ccc(F)cc2)cc1-c1ccn(C(C)C)n1` [compound 150, N-((4′-fluoro-3-(1-isopropyl-1H-pyrazol-3-yl)-[1,1′-biphenyl]-4-yl)methyl)acrylamide] the figure was less than 1000 nM; with `C=CC(=O)NCc1ccc(-c2ccc(F)cc2)cc1-c1ccn(CCO)n1` [compound 151, N-((4′-fluoro-3-(1-(2-hydroxyethyl)-1H-pyrazol-3-yl)-[1,1′-biphenyl]-4-yl)methyl)acrylamide], less than 1000 nM.

The values are drawn from patent publication US12552772B2, “2-pyrazole anilines and related analogs for inhibiting YAP/TAZ-TEAD” (KATHOLIEKE UNIVERSITEIT LEUVEN, priority 2021, dated 2026).
